Source: ChEMBL document CHEMBL1151983, “Antiprotealide is a natural product” (J Nat Prod, 2009)
Where “and” joins values, the source holds several entries; their conditions need not be identical. Equal values may be shown once.

Tests used:
[1] = Inhibition of caspase-like activity of rabbit 20S proteasome; set-up: species or system Oryctolagus cuniculus
[2] = Inhibition of chymotrypsin-like activity of rabbit 20S proteasome; set-up: species or system Oryctolagus cuniculus
[3] = Inhibition of trypsin-like activity of rabbit 20S proteasome; set-up: species or system Oryctolagus cuniculus
RPMI-8226 = assay: Cytotoxicity against human RPMI8226 cells after 48 hrs by resazurin assay; format: functional, cell-based

Compound	IC50 [1]	IC50 [2]	IC50 [3]	IC50 (RPMI-8226; Homo sapiens, RPMI-8226, 48 h)	IC50 (RPMI-8226; rpmi-8226)
CC(C)[C@H](O)[C@@]12NC(=O)[C@H](CCCl)[C@]1(C)OC2=O [ANTIPROTEALIDE]	> 20000 nM	27 nM and 31 nM	211 nM and 262 nM	220 nM	283 nM
C[C@@]12OC(=O)[C@]1([C@@H](O)[C@@H]1C=CCCC1)NC(=O)[C@@H]2CCCl [MARIZOMIB]	364 nM	4 nM	34 nM	11 nM	–
